We go through one compound from patent publication US6333340A, “Small molecule sulfonamides for vision and memory disorders” (Gpi Nil Holdings, Inc., priority 1998, dated 2001).

SMILES strings stand for the structures.

The test system of assay [1] is optic nerve axons and myelin. In words: Retinal ischemia, degeneration of optic nerve axons and myelin (toluidine blue). Format: in vivo, rat.
The test system of assay [2] is streptozotocin-induced diabetic rat. In words: Streptozotocin-induced diabetic sensory neuropathy, hot plate and tail flick tests. Format: in vivo, Male Wistar rats. The note with it: 10 mg/kg s.c., 6 weeks. Here is the method:
The procedure involved using Male Wistar rats which were given a single injection of streptozotocin (65 mg/kg i.v.). Blood glucose levels were determined weekly for the first three weeks and on the last week of the experiment. Animals were evaluated weekly for signs of sensory neuropathy using the conventional hot plate and tail flick apparatus test procedures.
For orientation: In hot-plate and tail-flick tests a longer latency is read as antinociception.

A further assay deals with FKBP12 (Homo sapiens, UniProt P62942). In words: Inhibition of peptidyl-prolyl isomerase (rotamase) activity of FKBP, chymotrypsin-coupled assay. The note with it: Table V; read-out: Ki rotomase. Format: biochemical. The text has this: The inhibition of the prolyl peptidyl cis-trans isomerase activity of FKBP may be measured as an indicator of this affinity.
Inhibition of the peptidyl-prolyl isomerase (rotamase) activity of the compounds used in the inventive methods and pharmaceutical compositions can be evaluated by known methods described in the literature (Harding et al., Nature, 1989, 341:758-760; Holt et al. J. Am. Chem. Soc., 115:9923-9938). These values are obtained as apparent Ki 's and are presented for representative compounds in TABLE B.
The cis-trans isomerization of an alanine-proline bond in a model substrate, N-succinyl-Ala-Ala-Pro-Phe-p-nitroanilide, is monitored spectrophotometrically in a chymotrypsin-coupled assay, which releases para-nitroanilide from the trans form of the substrate. The inhibition of this reaction caused by the addition of different concentrations of inhibitor is determined, and the data is analyzed as a change in first-order rate constant as a function of inhibitor concentration to yield the apparent Ki values.
In a plastic cuvette are added […] of ice cold assay buffer (25 mM HEPES, pH 7.8, 100 mM NaCl), 10 mL of FKBP (2.5 mM in 10 mM Tris-Cl pH 7.5, 100 mM NaCl, 1 mM dithiothreitol), 25 mL of chymotrypsin (50 mg/ml in 1 mM HCl) and […] of test compound at various concentrations in dimethyl sulfoxide. The reaction is initiated by the addition of 5 mL of substrate (succinyl-Ala-Phe-Pro-Phe-para-nitroanilide, 5 mg/mL in 2.35 mM LiCl in trifluoroethanol).
The absorbance at 390 nm versus time is monitored for 90 seconds using a spectrophotometer and the rate constants are determined from the absorbance versus time data files.

The next assay concerns retina. In words: Streptozotocin induced diabetes, retinal neovascularization and neuron loss (cresyl violet). Format: in vivo.
A further assay deals with optic nerve axons. The assay is described as follows: Optic nerve transection, optic nerve axon density (RT97 neurofilament immunohistochemistry). Format: in vivo, Sprague Dawley rats. The note with it: for % surviving RGCs with ON axons / ON head area (% sham) / increased ON axon density / ON axon Count / ON Axon density: 90 days after ONT; for increased ON axon density: adjusted for optic nerve diameter; for ON axon Count: axonal density multiplied by ON area; for ON Axon density: mean + SEM in 200 μm × 200 μm region. From the text: All eyes and optic nerves stumps were removed.
^2 mean density + SEM of RT97 neurofilament antibody labeled optic
nerve (ON) axons in 200 μm × 200 μm region of interest
^3 adjusted for optic nerve diameter
^4 calculated by multiplying axonal density by ON area

Where [3] appears, read: 28 days after 1 hour retinal ischemic episode.
Setting [4] is: 28 day treatment beginning 8 weeks after onset of diabetes.

What is called Ki is a measure of affinity in units of concentration, obtained from inhibition or displacement.

FKBP12, sequence (P62942 whole entry): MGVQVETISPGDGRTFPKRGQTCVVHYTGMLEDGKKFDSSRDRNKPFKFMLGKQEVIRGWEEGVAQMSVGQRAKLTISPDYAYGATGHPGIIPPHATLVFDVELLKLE

In the case of `CCC(C)(C)C(=O)C(=O)N1CCC[C@H]1C(=O)OCCCc1cccnc1` [GPI 1046], in assay [1] (setting [3]), the “density of degenerating myelin figures” value was “dramatically decreased the density of degenerating myelin figures” and the “protection of optic nerve axons from degeneration” value is “protected the majority of optic nerve axons from degeneration”. For the same compound, the “protection of optic nerve element from ischemic degeneration” value in assay [1] (retinal ischemia) is listed as “dramatic protection of optic nerve element from ischemic degeneration”. For the same compound, in assay [2], the “behavioral sequelae of diabetic sensory neuropathy” value is “ameliorates the behavioral sequelae of diabetic sensory neuropathy”; the “latency, hot plate” value is recorded as “improvement in latency”; the “latency, tail flick” value is “improvement in latency”. The Ki on FKBP12 turned out to be 7.5 nM. Further, in the assay with retina (setting [4]), the “neovascularization in the PR, ONL, OPL and INL” value is reported as “reduced neovascularization”; the “protection against neuronal loss in the ONL” value is given as “did not appear to protect against neuronal loss in the ONL”. Moreover, the “loss of neurons in INL and GCL” value with retina (28 day treatment, compared to streptozotocin/vehicle) was “appeared to decrease the loss of neurons in both the INL and GCL”. Also, in the assay on optic nerve axons (14 days treatment), the “% surviving RGCs with ON axons” value is listed as 33.6%, the “ON head area (% sham)” value is 76%, the “increased ON axon density” value is listed as 1.5 X and the “ON axon Count” value turned out to be 6820. Besides, the “ON Axon density” value in the assay with optic nerve axons (14 days treatment) was determined as 569 ± 23. The “density of large, medium and small caliber optic nerve axons” value with optic nerve axons (28 day treatment) is “significant increase in the density of large, and particularly medium and small caliber optic nerve axons”. Moreover, in the assay on optic nerve axons (28 days treatment), the “% surviving RGCs with ON axons” value is on record as 81.4%, the “ON head area (% sham)” value is given as 95%, the “increased ON axon density” value is 5.0 X and the “ON axon Count” value was 22,861. Besides, in the assay with optic nerve axons (28 days treatment), the “ON Axon density” value was 1526 ± 120. Besides, the “effect on optic nerve axons versus ganglion cell bodies” value with optic nerve axons (FIG. 5) was “greater effect on optic nerve axons than ganglion cell bodies”. Also, the “protection of optic nerve axons” value with optic nerve axons (first 14 days after transection) was found to be 5.3%. For the same compound, the “preservation of optic nerve axons in the proximal stump” value in the assay with optic nerve axons (following optic nerve transection, FIG. 12) is “preserves optic nerve axons in the proximal stump”.
